Here are results for eleven molecules from US10988477B2 (Merck Patent GmbH, priority 2018, dated 2021).

One assay addresses GCN2 kinase (Homo sapiens, UniProt Q9P2K8). Briefly: GCN2 enzyme inhibition assay (Transcreener ADP2 fluorescence polarization). The assay is classed as biochemical. The note with it: compounds of Formula II; 280 μM ATP, 4 nM GCN2 kinase. The gist of the method: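 FP detection of ADP (antibody plus Alexa633 tracer) after a 1 h, 25 °C kinase reaction. Enzyme 4 nM, ATP 280 μM, (RS)7 peptide 200 μM, Tris pH 7.5 buffer with MgCl2 and DTT. Percent inhibition fitted by non-linear tight-binding algorithm for IC50 and Ki(app).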

Assay [1] concerns the target intracellular GCN2 (phosphorylation of the GCN2 substrate eIF2α) (Homo sapiens, UniProt Q9P2K8). Put plainly: GCN2 cellular inhibition assay (AlphaScreen SureFire P-eIF2α Ser51, borrelidin-treated U2OS cells). The note with it: compounds of Formula II; biomarker assay, phosphorylated eIF2α Ser51 in borrelidin-treated U2OS cells. The assay is classed as cell-based. Here is the method: Compounds can be screened for their ability to inhibit intracellular GCN2 using an AlphaScreen assay (Perkin Elmer) to detect phosphorylation of the GCN2 substrate eIF2α in borrelidin-treated cells. U2OS cells are plated at 5,000 cells per well in 384-well white polystyrene plates (Corning 3570) in McCoy's 5 A media (GIBCO 26600-023) supplemented with 10% foetal bovine serum (SAFC 12103C), Penicillin/Streptomycin solution diluted 1:100 (Sigma P0781), and 2 mM L-glutamine (Sigma G7513), and allowed to adhere overnight at 37° C. in 5% CO2. Compounds are then added to the cell media from a final concentration of 40 μM in 4-fold serial dilutions. Borrelidin (FluoroChem M01440) is immediately added to the wells to a final concentration of 10 μM and the cells are incubated for 1 h at 37° C. in 5% CO2. After 1 h of treatment with borrelidin, the media is removed, and the cells are lysed with lysis buffer (TGR BioSciences TGRLB) at ambient temperature.
An AlphaScreen SureFire P-eIF2α (Ser51) assay kit (Perkin Elmer TGREIF2S) was used to measure levels of eIF2α phosphorylated on Serine 51. Anti-phosphorylated eIF2α Ser51 antibody-linked acceptor beads (TGR BioScience 6760617) are added to the cell homogenate (diluted 1:250 into a mixture of activation (TGR BioScience TGRAB) and reaction buffer (TGR BioScience TGREIF2S) prepared immediately before use). The plate is then incubated for 2 h at ambient temperature in the dark. Anti-eIF2α antibody-linked donor beads (TGR BioScience 6760617) were then added (diluted 1:100 in dilution buffer (TGR BioScience TGRDB) prepared immediately before use). The plate is then incubated overnight at ambient temperature in the dark.
Plates are analyzed on an Alpha Technology-compatible PHERAstar FS plate reader (BMG Labtech Version 1.14) to quantify phosphorylated eIF2α Ser51 levels. The percentage inhibition of phosphorylated eIF2α is calculated by comparison to control wells stimulated with borrelidin alone.

Chain of intracellular GCN2 (phosphorylation of the GCN2 substrate eIF2α) (Q9P2K8 whole entry): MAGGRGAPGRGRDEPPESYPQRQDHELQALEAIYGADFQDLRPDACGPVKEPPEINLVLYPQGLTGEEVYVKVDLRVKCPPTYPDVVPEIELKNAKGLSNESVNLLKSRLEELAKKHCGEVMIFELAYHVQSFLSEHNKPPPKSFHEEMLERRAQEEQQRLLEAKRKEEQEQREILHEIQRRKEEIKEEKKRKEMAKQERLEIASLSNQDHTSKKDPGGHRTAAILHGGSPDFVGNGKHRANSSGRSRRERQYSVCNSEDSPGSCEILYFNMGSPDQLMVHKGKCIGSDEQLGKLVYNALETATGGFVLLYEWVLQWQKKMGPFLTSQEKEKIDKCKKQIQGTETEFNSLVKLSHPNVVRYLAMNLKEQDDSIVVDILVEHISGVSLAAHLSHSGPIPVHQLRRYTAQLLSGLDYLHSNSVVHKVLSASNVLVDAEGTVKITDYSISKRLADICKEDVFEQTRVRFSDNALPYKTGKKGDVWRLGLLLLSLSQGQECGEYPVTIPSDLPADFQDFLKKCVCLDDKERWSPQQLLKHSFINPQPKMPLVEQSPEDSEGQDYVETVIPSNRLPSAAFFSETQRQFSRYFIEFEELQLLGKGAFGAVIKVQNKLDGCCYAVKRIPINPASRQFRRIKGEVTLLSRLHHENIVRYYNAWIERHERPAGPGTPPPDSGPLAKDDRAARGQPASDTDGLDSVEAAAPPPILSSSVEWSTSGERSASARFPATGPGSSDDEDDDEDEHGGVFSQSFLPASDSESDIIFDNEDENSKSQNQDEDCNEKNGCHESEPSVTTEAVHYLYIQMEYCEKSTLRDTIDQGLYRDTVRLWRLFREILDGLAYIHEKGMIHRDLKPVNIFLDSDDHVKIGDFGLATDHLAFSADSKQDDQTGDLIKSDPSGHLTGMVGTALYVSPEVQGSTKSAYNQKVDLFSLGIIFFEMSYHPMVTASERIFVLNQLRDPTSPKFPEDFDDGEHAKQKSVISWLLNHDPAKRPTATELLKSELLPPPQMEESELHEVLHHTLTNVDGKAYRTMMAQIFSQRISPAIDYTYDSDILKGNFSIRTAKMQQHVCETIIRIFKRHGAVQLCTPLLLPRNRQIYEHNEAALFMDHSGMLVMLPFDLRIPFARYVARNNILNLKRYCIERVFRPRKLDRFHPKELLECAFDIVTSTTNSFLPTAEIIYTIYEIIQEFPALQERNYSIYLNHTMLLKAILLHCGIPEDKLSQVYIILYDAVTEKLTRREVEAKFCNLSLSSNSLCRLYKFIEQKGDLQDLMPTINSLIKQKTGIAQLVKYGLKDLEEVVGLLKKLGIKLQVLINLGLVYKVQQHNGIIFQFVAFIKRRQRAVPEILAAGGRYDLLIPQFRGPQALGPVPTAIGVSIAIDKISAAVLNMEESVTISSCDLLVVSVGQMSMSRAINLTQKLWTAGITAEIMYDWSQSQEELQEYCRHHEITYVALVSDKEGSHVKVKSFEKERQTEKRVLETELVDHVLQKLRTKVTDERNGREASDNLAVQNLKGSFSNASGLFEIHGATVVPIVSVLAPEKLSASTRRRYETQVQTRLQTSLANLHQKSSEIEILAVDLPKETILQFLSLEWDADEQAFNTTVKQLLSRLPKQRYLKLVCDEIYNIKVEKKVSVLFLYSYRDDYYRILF
Chain of GCN2 kinase (Q9P2K8 whole entry): as above

Turning to `CC1C(CNS(C)(=O)=O)CCCN1c1cc(-c2cnc3ccc(C(F)F)nn23)ncn1` (single isomer, unassigned) [II-266, N-((1-(6-(6-(Difluoromethyl)imidazo[1,2-b]pyridazin-3-yl)pyrimidin-4-yl)-2-methylpiperidin-3-yl)methyl)methanesulfonamide], at GCN2 kinase, the Ki was < 10 nM. For the same molecule, the IC50 in assay [1] is < 500 nM.
The matching figures for `CS(=O)(=O)N1CCCC(c2cc(-c3cnc4ccc(C(F)F)nn34)ncn2)CC1` (single isomer, unassigned) [II-275, 6-(Difluoromethyl)-3-(6-(1-(methylsulfonyl)azepan-4-yl)pyrimidin-4-yl)imidazo[1,2-b]pyridazine]: 10 to 1000 nM and 500 to 5000 nM.
Consider `CS(=O)(=O)N1CCCC(c2cc(-c3cnc4ccc(C(F)F)nn34)ncn2)CC1` (single isomer, unassigned) [II-276, 6-(Difluoromethyl)-3-(6-(1-(methylsulfonyl)azepan-4-yl)pyrimidin-4-yl)imidazo[1,2-b]pyridazine], for which the Ki at GCN2 kinase was 10 to 1000 nM. In assay [1], this molecule returned an IC50 of 500 to 5000 nM.
As to `NS(=O)(=O)NCC1CCCN(c2cc(-c3cnc4ccc(C(F)F)nn34)ncn2)C1` (single isomer, unassigned) [II-277], on GCN2 kinase, the Ki was < 10 nM. This molecule showed an IC50 in assay [1] of 500 to 5000 nM.
Take `NS(=O)(=O)NCC1CCCN(c2cc(-c3cnc4ccc(C(F)F)nn34)ncn2)C1` (single isomer, unassigned) [II-278]: the Ki at GCN2 kinase is < 10 nM. In addition, in assay [1], the IC50 was < 500 nM.
`CC1C(CNS(C)(=O)=O)C(F)(F)CCN1c1cc(-c2cnc3ccc(C(F)F)nn23)ncn1` (single isomer, unassigned) [II-302, N-((1-(6-(6-(Difluoromethyl)imidazo[1,2-b]pyridazin-3-yl)pyrimidin-4-yl)-4,4-difluoro-2-methylpiperidin-3-yl)methyl)methanesulfonamide] returned a Ki on GCN2 kinase of 10 to 1000 nM. Further, in assay [1], the IC50 lay in the range of 500 to 5000 nM.
In the case of `CC1C(CNS(C)(=O)=O)C(F)(F)CCN1c1cc(-c2cnc3ccc(C(F)F)nn23)ncn1` (single isomer, unassigned) [II-303, N-((1-(6-(6-(Difluoromethyl)imidazo[1,2-b]pyridazin-3-yl)pyrimidin-4-yl)-4,4-difluoro-2-methylpiperidin-3-yl)methyl)methanesulfonamide], at GCN2 kinase, the Ki was 10 to 1000 nM. The IC50 in assay [1] was in the range of 500 to 5000 nM.
In the case of `CC1CC(F)(F)C(CNS(C)(=O)=O)CN1c1cc(-c2cnc3ccc(C(F)F)nn23)ncn1` (single isomer, unassigned) [II-304, N-((1-(6-(6-(Difluoromethyl)imidazo[1,2-b]pyridazin-3-yl)pyrimidin-4-yl)-4,4-difluoro-6-methylpiperidin-3-yl)methyl)methanesulfonamide], at GCN2 kinase, the Ki is < 10 nM. Besides, in assay [1], the IC50 is < 500 nM.
With `CC1CC(F)(F)C(CNS(C)(=O)=O)CN1c1cc(-c2cnc3ccc(C(F)F)nn23)ncn1` (single isomer, unassigned) [II-305, N-((1-(6-(6-(Difluoromethyl)imidazo[1,2-b]pyridazin-3-yl)pyrimidin-4-yl)-4,4-difluoro-6-methylpiperidin-3-yl)methyl)methanesulfonamide], the Ki at GCN2 kinase lay within 10 to 1000 nM. For the same molecule, the IC50 in assay [1] was > 5000 nM.
The molecule `CC1C[S+]([O-])CCN1c1cc(-c2cnc3ccc(C(F)F)nn23)ncn1` (single isomer, unassigned) [II-355, 4-(6-(6-(Difluoromethyl)imidazo[1,2-b]pyridazin-3-yl)pyrimidin-4-yl)-3-methylthiomorpholine 1-oxide] yielded a Ki at GCN2 kinase of 10 to 1000 nM. Further, the IC50 in assay [1] was > 5000 nM.
Take `CC1C[S+]([O-])CCN1c1cc(-c2cnc3ccc(C(F)F)nn23)ncn1` (single isomer, unassigned) [II-356, 4-(6-(6-(Difluoromethyl)imidazo[1,2-b]pyridazin-3-yl)pyrimidin-4-yl)-3-methylthiomorpholine 1-oxide]: the Ki on GCN2 kinase is 10 to 1000 nM. Moreover, in assay [1], the IC50 is > 5000 nM.
